# Tests used:
# Assay type in all cases: cell-based, Pseudomonas aeruginosa
# [1] = system: P. aeruginosa strain PAR 50 biofilm; assay: Reduction of biofilm growth (percent vs culture control)
# Description: (§1) FIG. 4C represents the effect of the tested compounds (1, 2, 3 and 4) on exopolysaccharide biosynthesis in the early stages and mature P. aeruginosa biofilm formation, strain PAR 50. The abscissa represents the time (in hours) in order to differentiate early biofilm and mature biofilm, and the ordinate represents the percentage of the biofilm reduction.
# (§2) Early biofilm model: formation of early biofilm under influence of the tested substances was observed by filling wells of a 96-well plate with 20 μl of P. aeruginosa suspension and 180 μl of TSB, as described above. Tested iminosugars (compounds 1, 2, 3 and 4) were added immediately after setting-up the bacteria at a final concentration of 0.9 mM. Then, the plate was gently mixed and incubated for 48 hours at 37° C.
# (§3) Mature biofilm model: the tested substances were added 48 hours after adherence of bacteria to the wells in a 96-well plate. The growth conditions of P. aeruginosa were exactly the same, as described above for the early biofilm model.
# (§4) The effect of the tested compounds (1, 2, 3 and 4) on the reduction of biofilm growth has also been studied on the three P. aeruginosa strains PAR 5, PAR 20, PAR 50.
# (§5) (Percent decrease in biofilm thickness was obtained as a mean value from 3 consecutive measurements of the Congo Red stained biofilm using spectrophotometer after addition of the tested iminosugars in comparison to control regarded as 100%).
# [2] = system: P. aeruginosa strain PAR 50 biofilm; assay: Mature biofilm model, Congo red staining; conditions: for absorbance (Congo red, biofilm development): mature biofilm, compound added 48 h after induction of biofilm
# Description: (§6) Biofilm quantity was determined using Congo red dye according to a modified procedure described by Allison et al. (Allison G C, Sutherland I W. A staining technique for bacteria and its correlation to extracellular carbohydrate production. J Microbiol Meth 2, 93-99 (1984)).
# (§7) Briefly, at different time points (0, 6, 18, 24, 48 and 72 hours), the culture medium was gently removed from wells by using the pipette and immediately 200 μl of 0.1% Congo red solution was added. The plates were left for 30 minutes at room temperature and then 10 minutes before the end of staining, the plate was centrifuged for 10 minutes at 2000 rpm and then washed twice with buffered saline to remove unbound dye. Absorbance was measured at λ=492 nm wavelength using spectrophotometer (Awarness Technology Inc., Palm City, Fla., USA). All measurements were performed in triplicates and mean values±SD are given.
# as §3
# (§8) After the addition of iminosugars (compounds 1, 2, 3 and 4), the biofilm formation and the number of viable bacteria were checked in the following time intervals: 48, 48.5, 56, 72, 96 hours.
# [3] = system: P. aeruginosa strain PAR 5 biofilm; assay: Mature biofilm model, Congo red staining; conditions: for absorbance (Congo red, biofilm development): mature biofilm, compound added 48 h after induction of biofilm
# Description: as §6, §7, §3, §8
# [4] = system: P. aeruginosa strain PAR 20 biofilm; assay: Mature biofilm model, Congo red staining; conditions: for absorbance (Congo red, biofilm development): mature biofilm, compound added 48 h after induction of biofilm
# Description: as §6, §7, §3, §8
# [5] = system: P. aeruginosa strain PAR 50 biofilm; assay: Early biofilm model, Congo red staining; conditions: for absorbance (Congo red, biofilm formation): early biofilm, 0.9 mM, 492 nm
# Description: (§9) P. aeruginosa biofilm was set-up in sterile plastic 96-well plates with adherent surface (Greiner Bio-One, USA).
# (§10) Twenty microliter quantities of the bacterial stock suspensions, prepared as described above, were added to each well followed with 180 μl of sterile TSB. Final concentration of the bacteria was 1×10^8 CFU/ml.
# (§11) The plates were centrifuged for 10 minutes at 2000 rpm to sediment bacteria on the bottom of each well and then incubated for 72 hours (37° C., aerobic conditions).
# as §6, §7, §2
# (§12) Biofilm formation and the number of viable bacteria were checked in parallel in the following time intervals: 0, 0.5, 8, 24, 48 hours, in accordance with the procedure described above. Biofilm thickness was estimated by staining it with Cango Red and measuring optical density while number of viable bacteria was performed using the standard viable count method. (Allison G C, Sutherland I W. A staining technique for bacteria and its correlation to extracellular carbohydrate production. J Microbiol Meth 2, 93-99 (1984)).
# (§13) P. aeruginosa suspension cultures in TSB broth alone were used as a control.
# [6] = system: P. aeruginosa strain PAR 5 biofilm; assay: Early biofilm model, Congo red staining; conditions: for absorbance (Congo red, biofilm formation): 0.9 mM, 492 nm
# Description: as §9, §10, §11, §6, §7, §2, §12, §13
# [7] = system: P. aeruginosa strain PAR 20 biofilm; assay: Early biofilm model, Congo red staining; conditions: for absorbance (Congo red, biofilm formation): early biofilm, 0.9 mM, 492 nm
# Description: as §9, §10, §11, §6, §7, §2, §12, §13
# [8] = system: P. aeruginosa strain PAR 5 biofilm; assay: Reduction of biofilm growth (percent vs culture control)
# Description: as §1, with “4A” for “4C”, “5.” for “50.”
# as §2, §3, §4, §5
# [9] = system: P. aeruginosa strain PAR 50; assay: Number of viable bacteria in early and mature biofilm (viable count)
# Description: as §12, §8
# (§14) Numbers of viable bacteria contained in the early and mature biofilm were estimated on separate plates with wells filled with tested P. aeruginosa strains as described above (PAR 5, PAR 20, PAR 50).
# (§15) At the same time intervals, biofilm content in each well was removed and mixed by multiple pippeting and transferred to sterile tubes. Then decimal dilutions of the bacterial suspension were made in TSB broth, plated on McConkey Agar (Oxoid), and incubated at 37° C. for 24 hours.
# (§16) Numbers of colonies grown on platter were counted and total numbers of the viable bacteria calculated as colony forming units (CFU) per ml.
# (§17) The results depict logs of CFU/ml for three P. aeruginosa strains: PAR 5, PAR 20 and PAR 50 measured at different time intervals (0 hours, 8 hours, 24 hours, 48 hours, 56 hours, 72 hours and 96 hours). The detection limit is 100 CFU/ml.
# [10] = system: P. aeruginosa strain PAR 20; assay: as above
# Description: as §12, §8, §14, §15, §16, §17
# [11] = system: P. aeruginosa strain PAR 5; assay: as above
# Description: as §12, §8, §14, §15, §16, §17
# [12] = system: P. aeruginosa strain PAR 20 biofilm; assay: Reduction of biofilm growth (percent vs culture control)
# Description: as §1, with “4B” for “4C”, “20.” for “50.”
# as §2, §3, §4, §5
# [13] = in comparison with culture control
structure (smiles),measurement,setting,value
"OCC(O)C[C@H]1NC[C@H](O)[C@H](O)[C@H]1O (stereo partly drawn) [Compound 2, β-1-C-(2,3-dihydroxypropyl)-1,5-dideoxy-1,5-imino-L-arabinitol]",reduction of biofilm growth,[1]; 8 hours of incubation,about 50%
same,reduction of biofilm growth,[1]; 24 hours of incubation,about 70%
same,reduction of biofilm growth,[1]; 48 hours of incubation,about 0%
same,reduction of biofilm growth,[1]; 72 hours of incubation,about 20%
same,effect on biofilm growth,[1]; notably an early biofilm,can reduce the biofilm growth
same,influence on mature biofilm formation,[2],weak influence
same,"absorbance (Congo red, biofilm development)",[2]; 48 hours,about 2.0 a.u.
same,"absorbance (Congo red, biofilm development)",[2]; 56 hours,about 1.75 a.u.
same,"absorbance (Congo red, biofilm development)",[2]; 72 hours,about 1.75 a.u.
same,"absorbance (Congo red, biofilm development)",[2]; 96 hours,about 2.0 a.u.
same,influence on mature biofilm formation,[3],weak influence
same,"absorbance (Congo red, biofilm development)",[3]; 48 hours,about 0.75 a.u.
same,"absorbance (Congo red, biofilm development)",[3]; 56 hours,about 1.0 a.u.
same,"absorbance (Congo red, biofilm development)",[3]; 72 hours,about 1.25 a.u.
same,"absorbance (Congo red, biofilm development)",[3]; 96 hours,about 1.5 a.u.
same,influence on mature biofilm formation,[4],weak influence
same,"absorbance (Congo red, biofilm development)",[4]; 48 hours,about 0.6 a.u.
same,"absorbance (Congo red, biofilm development)",[4]; 56 hours,about 0.7 a.u.
same,"absorbance (Congo red, biofilm development)",[4]; 72 hours,about 1.1 a.u.
same,"absorbance (Congo red, biofilm development)",[4]; 96 hours,about 2.0 a.u.
same,"absorbance (Congo red, biofilm formation)",[5]; 8 hours,about 0.8 a.u.
same,"absorbance (Congo red, biofilm formation)",[5]; 24 hours,about 0.7 a.u.
same,"absorbance (Congo red, biofilm formation)",[5]; 48 hours,about 1.1 a.u.
same,effect on formation of an early biofilm,[5]; [13],inhibit the formation of an early biofilm
same,"biofilm formation at 8 hours, 24 hours and 48 hours",[6]; early biofilm,no biofilm formation
same,"absorbance (Congo red, biofilm formation)","[6]; early biofilm, 8 hours",about 0.25 a.u.
same,"absorbance (Congo red, biofilm formation)","[6]; early biofilm, 24 hours",about 0.25 a.u.
same,"absorbance (Congo red, biofilm formation)","[6]; early biofilm, 48 hours",about 0.25 a.u.
same,effect on formation of an early biofilm,[6]; [13],inhibit the formation of an early biofilm
same,"absorbance (Congo red, biofilm formation)",[7]; 8 hours,about 0.75 a.u.
same,"absorbance (Congo red, biofilm formation)",[7]; 24 hours,about 0.9 a.u.
same,"absorbance (Congo red, biofilm formation)",[7]; 48 hours,about 0.9 a.u.
same,effect on formation of an early biofilm,[7]; [13],inhibit the formation of an early biofilm
same,reduction of biofilm growth,[8]; 8 hours of incubation,about 90%
same,reduction of biofilm growth,[8]; 24 hours of incubation,about 90%
same,reduction of biofilm growth,[8]; 48 hours of incubation,about 25%
same,reduction of biofilm growth,[8]; 72 hours of incubation,about 10%
same,effect on biofilm growth,[8]; notably an early biofilm,can reduce the biofilm growth
same,number of viable P. aeruginosa,"[9]; early biofilm, 0 h",3 × 10^7 CFU/ml
same,number of viable P. aeruginosa,"[9]; early biofilm, 8 h",2 × 10^8 CFU/ml
same,number of viable P. aeruginosa,"[9]; early biofilm, 24 h",7 × 10^8 CFU/ml
same,number of viable P. aeruginosa,"[9]; early biofilm, 48 h",1 × 10^8 CFU/ml
same,number of viable P. aeruginosa,"[9]; mature biofilm, 56 h",6 × 10^9 CFU/ml
same,number of viable P. aeruginosa,"[9]; mature biofilm, 72 h",1 × 10^9 CFU/ml
same,number of viable P. aeruginosa,"[9]; mature biofilm, 96 h",9 × 10^9 CFU/ml
same,number of viable P. aeruginosa,"[10]; early biofilm, 0 h",2 × 10^6 CFU/ml
same,number of viable P. aeruginosa,"[10]; early biofilm, 8 h",4 × 10^7 CFU/ml
same,number of viable P. aeruginosa,"[10]; early biofilm, 24 h",3 × 10^8 CFU/ml
same,number of viable P. aeruginosa,"[10]; early biofilm, 48 h",1 × 10^9 CFU/ml
same,number of viable P. aeruginosa,"[10]; mature biofilm, 56 h",4 × 10^8 CFU/ml
same,number of viable P. aeruginosa,"[10]; mature biofilm, 72 h",3 × 10^7 CFU/ml
same,number of viable P. aeruginosa,"[10]; mature biofilm, 96 h",3 × 10^8 CFU/ml
same,number of viable P. aeruginosa,"[11]; early biofilm, 0 h",8 × 10^6 CFU/ml
same,number of viable P. aeruginosa,"[11]; early biofilm, 8 h",2 × 10^7 CFU/ml
same,number of viable P. aeruginosa,"[11]; early biofilm, 24 h",1 × 10^7 CFU/ml
same,number of viable P. aeruginosa,"[11]; early biofilm, 48 h",1 × 10^7 CFU/ml
same,number of viable P. aeruginosa,"[11]; mature biofilm, 56 h",4 × 10^8 CFU/ml
same,number of viable P. aeruginosa,"[11]; mature biofilm, 72 h",2 × 10^8 CFU/ml
same,number of viable P. aeruginosa,"[11]; mature biofilm, 96 h",5 × 10^8 CFU/ml
same,reduction of biofilm growth,[12]; 8 hours of incubation,about 45%
same,reduction of biofilm growth,[12]; 24 hours of incubation,about 45%
same,reduction of biofilm growth,[12]; 48 hours of incubation,about 0%
same,reduction of biofilm growth,[12]; 72 hours of incubation,about 0%
same,effect on biofilm growth,[12]; notably an early biofilm,can reduce the biofilm growth
